Laboratory results reported in ChEMBL document CHEMBL1201862, “PubChem BioAssay data set” (2004).
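Cells were grown in 96-well plates and exposed to each compound for 48 hours at five concentrations; endpoints were interpolated linearly between bracketing concentrations, or set to the highest concentration if not reached. Abbreviation: GI50, concentration required for 50% inhibition of growth.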 The source made the active and inactive calls. No stated cut-off is given here; in the data, active = GI50 up to about 1.1 µM and inactive = higher.

How the values were obtained:
Assay in all cases: growth of human tumour cells (NCI), 48 h
SR = tested on: SR
SK-OV-3 = tested on: SK-OV-3
COLO 205 = tested on: COLO 205
TK-10 = tested on: TK-10
UACC-62 = tested on: UACC-62
T47D = tested on: T47D
UO-31 = tested on: UO-31
MDA-N = tested on: MDA-N
NCI-H226 = tested on: NCI-H226
OVCAR-3 = tested on: OVCAR-3
BT-549 = tested on: BT-549
MDA-MB-435 = tested on: MDA-MB-435
Malme-3M = tested on: Malme-3M
A549 = tested on: A549
SK-MEL-5 = tested on: SK-MEL-5
EKVX = tested on: EKVX
M14 = tested on: M14
HL-60 = tested on: HL-60
HOP-62 = tested on: HOP-62
IGROV-1 = tested on: IGROV-1

| Structure (SMILES) | GI50 (SR) | GI50 (SK-OV-3) | GI50 (COLO 205) | GI50 (TK-10) | GI50 (UACC-62) | GI50 (T47D) | GI50 (UO-31) | GI50 (MDA-N) | GI50 (NCI-H226) | GI50 (OVCAR-3) | GI50 (BT-549) | GI50 (MDA-MB-435) | GI50 (Malme-3M) | GI50 (A549) | GI50 (SK-MEL-5) | GI50 (EKVX) | GI50 (M14) | GI50 (HL-60) | GI50 (HOP-62) | GI50 (IGROV-1) |
| --- | --- | --- | --- | --- | --- | --- | --- | --- | --- | --- | --- | --- | --- | --- | --- | --- | --- | --- | --- | --- |
| O=S1(=O)OCCOS(=O)(=O)C1F | > 100 µM (inactive) | > 100 µM (inactive) | > 100 µM (inactive) | > 100 µM (inactive) | > 100 µM (inactive) | > 100 µM (inactive) | > 100 µM (inactive) | > 100 µM (inactive) | > 100 µM (inactive) | > 100 µM (inactive) | 0.0293 µM (active) | > 100 µM (inactive) | > 100 µM (inactive) | > 100 µM (inactive) | > 100 µM (inactive) | > 100 µM (inactive) | > 100 µM (inactive) | > 100 µM (inactive) | > 100 µM (inactive) | – |
| COc1cc(C2=N/C(=C/c3cccs3)C(=O)O2)cc(OC)c1OC | > 100 µM (inactive) | > 100 µM (inactive) | > 100 µM (inactive) | > 100 µM (inactive) | > 100 µM (inactive) | > 100 µM (inactive) | – | > 100 µM (inactive) | > 100 µM (inactive) | > 100 µM (inactive) | > 100 µM (inactive) | > 100 µM (inactive) | > 100 µM (inactive) | > 100 µM (inactive) | > 100 µM (inactive) | > 100 µM (inactive) | > 100 µM (inactive) | > 100 µM (inactive) | > 100 µM (inactive) | > 100 µM (inactive) |
| c1cc(-c2csc(-c3ccsc3)c2)cs1 | > 100 µM (inactive) | > 100 µM (inactive) | > 100 µM (inactive) | > 100 µM (inactive) | > 100 µM (inactive) | > 100 µM (inactive) | > 100 µM (inactive) | > 100 µM (inactive) | 13.5 µM (inactive) | 52.1 µM (inactive) | > 100 µM (inactive) | > 100 µM (inactive) | – | > 100 µM (inactive) | > 100 µM (inactive) | > 100 µM (inactive) | 47 µM (inactive) | > 100 µM (inactive) | 71.6 µM (inactive) | > 100 µM (inactive) |
| NC(=S)N/N=C1\CCCCc2ccccc21 | > 10 µM (inactive) | – | > 10 µM (inactive) | > 10 µM (inactive) | – | 4.81 µM (inactive) | > 10 µM (inactive) | > 10 µM (inactive) | > 10 µM (inactive) | > 10 µM (inactive) | > 10 µM (inactive) | > 10 µM (inactive) | > 10 µM (inactive) | > 10 µM (inactive) | – | > 10 µM (inactive) | > 10 µM (inactive) | > 10 µM (inactive) | > 10 µM (inactive) | – |
| CC/C=C\C=C/C(=O)N/C=C/CCC | 33.3 µM (inactive) | > 100 µM (inactive) | – | > 100 µM (inactive) | 47.2 µM (inactive) | 62.8 µM (inactive) | > 100 µM (inactive) | > 100 µM (inactive) | > 100 µM (inactive) | 58.3 µM (inactive) | > 100 µM (inactive) | > 100 µM (inactive) | > 100 µM (inactive) | > 100 µM (inactive) | – | > 100 µM (inactive) | > 100 µM (inactive) | > 100 µM (inactive) | > 100 µM (inactive) | > 100 µM (inactive) |
| Cc1nc2c(sc(=S)n2-c2ccccc2)c2nc3ncccc3n12 | > 100 µM (inactive) | 33 µM (inactive) | > 100 µM (inactive) | 33.7 µM (inactive) | > 100 µM (inactive) | > 100 µM (inactive) | > 100 µM (inactive) | > 100 µM (inactive) | – | > 100 µM (inactive) | > 100 µM (inactive) | > 100 µM (inactive) | > 100 µM (inactive) | > 100 µM (inactive) | > 100 µM (inactive) | > 100 µM (inactive) | > 100 µM (inactive) | > 100 µM (inactive) | 25 µM (inactive) | > 100 µM (inactive) |
| COc1ccccc1NC(=O)CC(=O)NN | > 100 µM (inactive) | > 100 µM (inactive) | > 100 µM (inactive) | > 100 µM (inactive) | > 100 µM (inactive) | > 100 µM (inactive) | > 100 µM (inactive) | > 100 µM (inactive) | > 100 µM (inactive) | > 100 µM (inactive) | > 100 µM (inactive) | > 100 µM (inactive) | > 100 µM (inactive) | > 100 µM (inactive) | > 100 µM (inactive) | > 100 µM (inactive) | – | > 100 µM (inactive) | > 100 µM (inactive) | > 100 µM (inactive) |
| Nc1nc(N)c2c3c(cnc2n1)CC(c1ccccc1)CC3 (stereo not drawn) | 10.6 µM (inactive) | 21.5 µM (inactive) | 35 µM (inactive) | 21.7 µM (inactive) | 1.11 µM (active) | 23.9 µM (inactive) | – | 3.7 µM (inactive) | 93.1 µM (inactive) | 31 µM (inactive) | 17 µM (inactive) | 6.76 µM (inactive) | 31.5 µM (inactive) | 2.03 µM (inactive) | 1.01 µM (active) | 11.2 µM (inactive) | 3.24 µM (inactive) | 6.43 µM (inactive) | 21.6 µM (inactive) | 0.728 µM (active) |
| CCn1c2ccccc2c2nnc(NCCCO)nc21 | 92.5 µM (inactive) | > 100 µM (inactive) | > 100 µM (inactive) | > 100 µM (inactive) | > 100 µM (inactive) | 82 µM (inactive) | – | > 100 µM (inactive) | > 100 µM (inactive) | > 100 µM (inactive) | > 100 µM (inactive) | > 100 µM (inactive) | > 100 µM (inactive) | > 100 µM (inactive) | 94.4 µM (inactive) | 28 µM (inactive) | > 100 µM (inactive) | > 100 µM (inactive) | > 100 µM (inactive) | > 100 µM (inactive) |
| NC1CCC(N(CC(=O)O)CC(=O)O)C(N(CC(=O)O)CC(=O)O)C1 (stereo not drawn) | > 100 µM (inactive) | > 100 µM (inactive) | > 100 µM (inactive) | > 100 µM (inactive) | > 100 µM (inactive) | > 100 µM (inactive) | > 100 µM (inactive) | > 100 µM (inactive) | > 100 µM (inactive) | > 100 µM (inactive) | > 100 µM (inactive) | > 100 µM (inactive) | > 100 µM (inactive) | > 100 µM (inactive) | > 100 µM (inactive) | – | – | > 100 µM (inactive) | > 100 µM (inactive) | > 100 µM (inactive) |
| CC(C)(C)c1cc(C=C(C#N)C#N)cc(C(C)(C)C)c1O [TYRPHOSTIN A9] | 0.396 µM (active) | – | – | 2.05 µM (inactive) | 0.328 µM (active) | 0.135 µM (active) | 0.315 µM (active) | 0.608 µM (active) | 1.34 µM (inactive) | 0.258 µM (active) | 0.316 µM (active) | 0.76 µM (active) | 0.439 µM (active) | 0.316 µM (active) | 0.376 µM (active) | – | 0.944 µM (active) | 0.329 µM (active) | 0.405 µM (active) | 0.682 µM (active) |
| COc1cc2c(cc1OC)C(=O)N(c1ccc(O)cc1)C2=O | > 100 µM (inactive) | > 100 µM (inactive) | > 100 µM (inactive) | > 100 µM (inactive) | > 100 µM (inactive) | > 100 µM (inactive) | – | > 100 µM (inactive) | > 100 µM (inactive) | > 100 µM (inactive) | > 100 µM (inactive) | > 100 µM (inactive) | > 100 µM (inactive) | > 100 µM (inactive) | > 100 µM (inactive) | > 100 µM (inactive) | > 100 µM (inactive) | > 100 µM (inactive) | > 100 µM (inactive) | > 100 µM (inactive) |
| CCOC(=O)CC1C(C(=O)OCC)=Cn2c([nH]c3cccc4cccc2c43)=C1C(=O)OCC (stereo not drawn) | > 100 µM (inactive) | > 100 µM (inactive) | > 100 µM (inactive) | > 100 µM (inactive) | > 100 µM (inactive) | 43.8 µM (inactive) | > 100 µM (inactive) | > 100 µM (inactive) | > 100 µM (inactive) | > 100 µM (inactive) | > 100 µM (inactive) | 54.3 µM (inactive) | – | > 100 µM (inactive) | 33.7 µM (inactive) | > 100 µM (inactive) | > 100 µM (inactive) | 25.3 µM (inactive) | > 100 µM (inactive) | > 100 µM (inactive) |
| Cc1nn2c(N)cc(=O)nc2nc1/C=C/c1ccc(N(C)C)cc1 | > 100 µM (inactive) | > 100 µM (inactive) | 7.74 µM (inactive) | > 100 µM (inactive) | 5.02 µM (inactive) | > 100 µM (inactive) | 3.94 µM (inactive) | 5.82 µM (inactive) | > 66.5 µM (inactive) | – | > 32 µM (inactive) | 7.93 µM (inactive) | 5.2 µM (inactive) | 16.9 µM (inactive) | 20.6 µM (inactive) | 7.23 µM (inactive) | > 28 µM (inactive) | < 0.01 µM (active) | 9.55 µM (inactive) | 16.6 µM (inactive) |
| N#CCCN(C(=O)Nc1ccc(NC(=O)N(CCC#N)c2ccccc2)cc1)c1ccccc1 | > 100 µM (inactive) | > 100 µM (inactive) | > 100 µM (inactive) | – | > 100 µM (inactive) | > 100 µM (inactive) | > 100 µM (inactive) | > 100 µM (inactive) | > 100 µM (inactive) | > 100 µM (inactive) | > 100 µM (inactive) | > 100 µM (inactive) | > 100 µM (inactive) | > 100 µM (inactive) | > 100 µM (inactive) | > 100 µM (inactive) | > 100 µM (inactive) | > 100 µM (inactive) | > 100 µM (inactive) | > 100 µM (inactive) |
